Results: PubChem BioAssay (NCI)
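The compound was tested at five concentrations on cells cultured in 96-well plates, with a 48-hour exposure period. GI50 = concentration required for 50% inhibition of growth. TGI: concentration producing complete growth inhibition.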

Key:
Assay in all cases: NCI tumour cell line growth inhibition, 48 h; in the data active means GI50 below about 0.43 µM; inactive means the rest
[1] = tested on: HL-60(TB) leukemia
[2] = tested on: LOX IMVI melanoma
[3] = tested on: HCT-116 colon
[4] = tested on: NCI-H522 lung
[5] = tested on: T-47D breast
[6] = tested on: NCI/ADR-RES ovarian
[7] = tested on: SNB-75 CNS
[8] = tested on: SK-MEL-5 melanoma
[9] = tested on: HCT-15 colon
[10] = tested on: 786-0 renal
[11] = tested on: NCI-H226 lung
[12] = tested on: SK-MEL-28 melanoma
[13] = tested on: NCI-H460 lung
[14] = tested on: M14 melanoma
[15] = tested on: RXF 393 renal
[16] = tested on: HOP-62 NSCLC
[17] = tested on: TK-10 renal
[18] = tested on: MOLT-4 leukemia
[19] = tested on: A549 NSCLC
[20] = tested on: ACHN renal
[21] = tested on: HT29 colon
[22] = tested on: OVCAR-4 ovarian
[23] = tested on: MDA-MB-231 breast
[24] = tested on: SK-OV-3 ovarian
[25] = tested on: OVCAR-8 ovarian
[26] = tested on: PC-3 prostate
[27] = tested on: CCRF-CEM leukemia
[28] = tested on: IGROV1 ovarian
[29] = tested on: SNB-19 CNS
[30] = tested on: HOP-92 NSCLC
[31] = tested on: SW-620 colon
[32] = tested on: CAKI-1 renal
[33] = tested on: SF-295 CNS
[34] = tested on: UO-31 renal
[35] = tested on: OVCAR-5 ovarian
[36] = tested on: MCF7 breast
[37] = tested on: EKVX NSCLC
[38] = tested on: U251 CNS
[39] = tested on: K-562 leukemia
[40] = tested on: MDA-MB-435
[41] = tested on: MALME-3M melanoma
[42] = tested on: RPMI-8226 leukemia
[43] = tested on: UACC-62 melanoma
[44] = tested on: SF-268 CNS
[45] = tested on: HS 578T breast
[46] = tested on: DU-145 prostate
[47] = tested on: NCI-H23 lung
[48] = tested on: SR leukemia
[49] = tested on: SN12C renal
[50] = tested on: SK-MEL-2 melanoma
[51] = tested on: OVCAR-3 ovarian
[52] = tested on: A498 renal
[53] = tested on: COLO 205 colon
[54] = tested on: UACC-257 melanoma
[55] = tested on: HCC-2998 colon
[56] = tested on: BT-549 breast
[57] = tested on: SF-539 CNS
[58] = tested on: KM12 colon

Cc1nc(-c2cnc(NC(C)C)n(C)c2=O)ccc1Oc1ccnc(-c2cnn(C)c2)c1
55.1 µM: TGI [54]
38.6 µM: TGI [52]
18.2 µM: TGI [40]
80.7 µM: TGI [53]
35.2 µM: TGI [18]
90.3 µM: TGI [33]
9.33 µM: TGI [39]
65.2 µM: TGI [32]
99.1 µM: TGI [11]
67.6 µM: TGI [45]
71.9 µM: TGI [4]
45.7 µM: TGI [43]
> 100 µM: TGI [2] | TGI [3] | TGI [6] | TGI [9] | TGI [10] | TGI [12] | TGI [13] | TGI [16] | TGI [19] | TGI [20] | TGI [22] | TGI [23] | TGI [24] | TGI [25] | TGI [26] | TGI [27] | TGI [28] | TGI [29] | TGI [31] | TGI [34] | TGI [35] | TGI [36] | TGI [38] | TGI [44] | TGI [46] | TGI [47] | TGI [49] | TGI [51] | TGI [55] | TGI [58]
26.6 µM: TGI [1]
75.4 µM: TGI [17]
81.7 µM: TGI [42]
inactive: GI50 [1] 4.31 µM | GI50 [2] 20.7 µM | GI50 [3] 4.67 µM | GI50 [4] 5.77 µM | GI50 [5] 7.39 µM | GI50 [6] 8.35 µM | GI50 [7] 12.3 µM | GI50 [8] 4.59 µM | GI50 [9] 5.51 µM | GI50 [10] 25.7 µM | GI50 [11] 14.9 µM | GI50 [12] 14.2 µM | GI50 [13] 13.2 µM | GI50 [14] 5.72 µM | GI50 [15] 10.7 µM | GI50 [16] 12.7 µM | GI50 [17] 16 µM | GI50 [18] 5.16 µM | GI50 [19] 15 µM | GI50 [20] 18.9 µM | GI50 [21] 5.28 µM | GI50 [22] 7.28 µM | GI50 [23] 20.5 µM | GI50 [24] 23.5 µM | GI50 [25] 21.3 µM | GI50 [26] 16.5 µM | GI50 [27] 12.1 µM | GI50 [28] 15 µM | GI50 [29] 25.2 µM | GI50 [30] 7.44 µM | GI50 [31] 5.49 µM | GI50 [32] 7.51 µM | GI50 [33] 9.14 µM | GI50 [34] 15.7 µM | GI50 [35] 19.4 µM | GI50 [36] 5.07 µM | GI50 [37] 10.4 µM | GI50 [38] 15.6 µM | GI50 [39] 1.64 µM | GI50 [40] 2.98 µM | GI50 [41] 12.6 µM | GI50 [42] 8.49 µM | GI50 [43] 4.84 µM | GI50 [44] 23 µM | GI50 [45] 12.2 µM | GI50 [46] 33.2 µM | GI50 [47] 13.3 µM | GI50 [48] 2.99 µM | GI50 [49] 19.7 µM | GI50 [50] 12 µM | GI50 [51] 16.1 µM | GI50 [52] 4.8 µM | GI50 [53] 10.6 µM | GI50 [54] 12 µM | GI50 [55] 24 µM | GI50 [56] 12.7 µM | GI50 [57] 7.5 µM | GI50 [58] 5.91 µM
68.8 µM: TGI [41]
19.5 µM: TGI [8]
29.1 µM: TGI [48]
99.7 µM: TGI [5] | TGI [37]
44 µM: TGI [15]
33.4 µM: TGI [14]
46.8 µM: TGI [57]
47.7 µM: TGI [7]
52.8 µM: TGI [50]
53.1 µM: TGI [30]
70 µM: TGI [56]
68 µM: TGI [21]
